In patent publication US20210222168A1, “METHODS FOR REACTIVATING GENES ON THE INACTIVE X CHROMOSOME” (THE GENERAL HOSPITAL CORPORATION, priority 2017, published 2021):
“Also recorded” adds a separate entry of the source.

Assays:
[1] = Aza three pulse treatment, long-term health, lifespan and body weight
Method: Aza was administered to the Xist2lox, Nestin-Cre F2 generation, by IP injection at 5 weeks old. Three injections 100 ul per 10 g of 0.033 mg/ml in sterile saline (or just sterile saline as control) were given over the course of a week (each injection separated by 2 days). Both Xist2lox/2lox and Xist Δ/Δ were injected and were randomly assigned to the treatment group. No specific randomization protocol was followed. RNA from the brain and liver were harvested (as described before) at 7 weeks of age (2 weeks after the first injection).

[2] = test system: X-linked gene expression relative to autosomal expression; test: Aza three pulse treatment, transcriptomic analysis of brain and liver; format: in vivo, mouse
From the text: All libraries were sequenced with Illumina HiSeq, generating 28-54 millions paired-end 50 nucleotide reads per sample. RNA-seq reads were aligned allele-specifically to 129S1/SvJm (mus) and CAST/Eih (cas) genome using TopHat2 (Kim D, et al. (2013) TopHat2: Accurate alignment of transcriptomes in the presence of insertions, deletions and gene fusions. Genome Biol 14:R36). After removal of PCR duplicates, all unique reads mapped to the exons of each gene were quantified by Homer (Heinz S, et al. (2010) Simple combinations of lineage-determining transcription factors prime cis-regulatory elements required for macrophage and B cell identities. Mol Cell 38:576-589). […] To compare the fold change of autosomal and X-linked genes, only genes with FPKM≥1 were considered (Yang L, Kirby J E, Sunwoo H, Lee J T (2016) Female mice lacking Xist RNA show partial dosage compensation and survive to term. Genes Dev 30:1747-1760). […] For allele-specific analysis, we defined % mus as the percentage of mus-specific exonic reads in all allele-specific (mus-specific+cas-specific) exonic reads of each transcript. For classification of X-linked genes, we defined expressed genes as genes having non-zero FPKM in all samples. Allele-assessable genes were defined as active genes that have more than 12 allele-specific reads in all samples (Pinter S F and Colognori D (2015) Allelic imbalance is a prevalent and tissue-specific feature of the mouse transcriptome. Genetics 200:537-549). It has been described that a small fraction of genes overlap with incorrectly annotated SNPs and produce unexpected allelic skewing (Pinter S F and Colognori D (2015) Allelic imbalance is a prevalent and tissue-specific feature of the mouse transcriptome. Genetics 200:537-549; Calabrese J M et al. (2012) Site-specific silencing of regulatory elements as a mechanism of X inactivation. Cell 151:951-963). These genes were identified by analyzing a published RNA-seq dataset of tail-tip fibroblasts (TTF) from pure Mus castaneous background. […]

[3] = cited from earlier work
[4] = test system: Xi-Mecp2-Luc MEF cells; details: stated in parentheses only; target and source not given; cited from earlier work
[5] = test system: Mecp2:Luciferase knock-in reporter on the Xi; test: Luciferase assay in Xi-Mecp2-Luc MEFs; format: cell-based, mouse; details: for Xi-Mecp2 upregulation / reactivation in combination with the Xist ASO: 20 nM Xist ASO + small molecule inhibitor (EPZ6438 1 uM, VX680 1 uM, Aza 0.5 uM); for upregulation of MECP2 by other Xist gapmers: 20 nM ASO + 0.5 μM Aza (FIG. 7B-D)
Method: (§1) Mecp2-Luc fibroblast cell lines were a generous gift from Dr. Bedalov. The clonal hybrid (cast/mus) cell line (EY.T4) was previously developed in the lab (Yildirim E et al. (2011) X-chromosome hyperactivation in mammals via nonlinear relationships between chromatin states and transcription. Nat Struct Mol Biol 19:56-61). Passage number was kept below 25, no further verification of cell line identity was performed. They were maintained in DMEM-glutamax (Gibco), supplemented with fetal bovine serum (FBS, 10%), non-essential amino acids (1×, Gibco), HEPES buffer (25 mM, Gibco), penicillin/streptomycin (1×, Gibco) and 2-Mercaptoethanol (Sigma). Transfection was performed with 20 nM ASO assisted by Lipofectamine LTX with Plus reagent (Thermo Fisher).
Xa-Mecp2-Luc clone cell line was used in parallel for providing a scaling magnitude for normalizing Xi-driven luciferase signals, Cells were grown in a 12 well plate, trypsinized, counted, washed with PBS and dispensed in 20 ul of 1× cell culture lysis reagent (Promega). The mixture was vortexed and incubated for 5 min and then transferred to a zebra 96 well plate. The plate was read using a Perkin Elmer MicroBeta2 LumiJET that automatically adds 100 μl of Luciferase Assay Reagent (Promega) 2 sec before measuring the produced light for 10 sec. The corrected counts per second where divided by the number of cells for generating a luciferase-reactivation score per cell. For the initiating screen ASOs were used at 20 nM (transfected with lipofectamine) in combination with 0.5 uM Aza for 3 days. The reverse screen used 20 nM Xist ASO (transfected with lipofectamine) in combination with the small molecule inhibitors at different concentrations (see Table S-II) for 3 days.
We asked whether an ASO could also be developed for Xi-reactivation. We screened a small ASO library against various targets of potential interest, including Xist RNA and an antisense transcript to Mecp2 (Mecp2-as) (FIG. 1A, FIG. 6, Table S-I). In designing the ASOs, we chose phosporothioate backbone and locked nucleic acid (LNA™) chemistry (Wahlestedt C et al. Potent and nontoxic antisense oligonucleotides containing locked nucleic acids. Proc Natl Acad Sci USA. 2000; 97:5633-5638) for its in vivo and in vitro stability, and increased affinity and selectivity for RNA targets. All were designed as gapmers, with unmodified deoxyribonucleosides in the center flanked by 5′ and 3′ terminal locked nucleosides, to direct RNAse-H-mediated cleavage of the target transcript. […] The luciferase reporter provides a highly sensitive enzymatic detection method with a large dynamic range. […] Epigenetics Chromatin. […] Science. 2015; 349: aab2276-12), we examined the efficacy of each ASO in the presence of 0.5 uM decitabine (“Aza”; 5-aza-2′-deoxycytidine) for three days.

[6] = test system: Xi-Mecp2-Luc MEF cells; format: cell-based
Method: as §1
Imaging was done with a Nikon Eclipse TE2000-E equipped with a HamamatsuCCD camera. Image analysis was done with OpenLAB software (Agilent).

Nc1ncn([C@H]2C[C@H](O)[C@@H](CO)O2)c(=O)n1 [Aza, 5-aza-2′-deoxycytidine]
survival ([1]; after short-term Aza pulse treatment): all mice advanced to 1-2 year of age | body weight, Aza versus saline treatment groups ([1]; mouse, in vivo): did not introduce significant differences | health and lifespan ([1]; mouse, in vivo): no measurable differences in health and lifespan | X- and autosomal gene expression in liver ([2]; three IP Aza pulses over one week at 5 weeks of age, harvested two weeks later, liver (Xist not deleted)): remained balanced | X-linked gene expression relative to autosomal expression in XistΔ/Δ brain ([2]; three IP Aza pulses over one week combined with Xist deletion, brain two weeks later): highly significant positive changes in X-linked gene expression relative to autosomal expression; also recorded: X-upregulation evident in the brain two weeks later; also recorded: sufficient to induce Xi reactivation after two weeks in the brain | X-to-autosomal gene expression in Xist2lox/2lox (wild-type) brain ([2]; three IP Aza pulses over one week, brain two weeks later): did not result in X-to-autosomal gene imbalance | blood-brain-barrier crossing ([3]; cited: Chabot et al., rabbits and dogs): can cross the blood-brain-barrier | half-life (t1/2) in plasma ([3]; plasma): < 1 h | IC50 [4]: 500 nM | Mecp2:luciferase upregulation, single treatments compared with the combination ([5]; 5 days): remained significantly lower | cell death at higher Aza concentrations ([6]; 1.0, 2.5 uM Aza, 3-day treatment): increased cell death | tolerable Aza concentrations in cell culture ([6]; FIG. 2C): 0.5 µM

CCN(c1cc(-c2ccc(CN3CCOCC3)cc2)cc(C(=O)NCc2c(C)cc(C)[nH]c2=O)c1C)C1CCOCC1 [EPZ6438, N-((4,6-dimethyl-2-oxo-1,2-dihydropyridin-3-yl)methyl)-5-(ethyl(tetrahyd-ro-2H-pyran-4-yl)amino)-4-methyl-4′-(morpholinomethyl)-[1,1′-biphenyl]-3-carboxamide]
Xi-Mecp2 upregulation / reactivation in combination with the Xist ASO ([5]; 3 days): varying degrees of upregulation; also recorded: larger degree of reactivation than previously seen with any other compound

Cc1cc(Nc2cc(N3CCN(C)CC3)nc(Sc3ccc(NC(=O)C4CC4)cc3)n2)n[nH]1 [VX680]
Xi-Mecp2 upregulation / reactivation in combination with the Xist ASO ([5]; 3 days): varying degrees of upregulation; also recorded: larger degree of reactivation than previously seen with any other compound

Scr ASO: negative control ASO, scrambled sequence; AACACGTCTATACGC, SEQ ID NO: 1 (all phosphorothioate, sugars by position and methylation of C not given here; LNA gapmer with DNA center and LNA wings)
luminescent counts per second (LCPS) / Mecp2:luciferase reactivation, single treatment ([5]; 3 days, ASO 20 nM or Aza 0.5 uM alone): neither the control Scr ASO (20 nM) nor Xist ASO (20 nM gapmer 1) resulted in measurable luminescent counts per second

Xist ASO 2: LNA gapmer ASO targeting Xist exon 1; AGTAGCTCGGTGGAT, SEQ ID NO: 3 (all phosphorothioate, sugars by position and methylation of C not given here; LNA gapmer with DNA center and LNA wings)
upregulation of MECP2 by other Xist gapmers [5]: found to also upregulate MECP2

Xist ASO 3: LNA gapmer ASO targeting Xist exon 1; TGAGTCTTGAGGAGAA, SEQ ID NO: 4 (all phosphorothioate, sugars by position and methylation of C not given here; LNA gapmer with DNA center and LNA wings)
upregulation of MECP2 by other Xist gapmers [5]: found to also upregulate MECP2
